Reference: US10544149B2, “Bicyclic alkyne derivatives and uses thereof” (Agency for Science, Technology and Research, priority 2013, dated 2020)

Experiments:
MNK1 = MNK1 (Homo sapiens, UniProt Q9BUB5); assay: MNK1 enzymatic assay; type: biochemical
MNK2 = MNK2 (Homo sapiens, UniProt Q9HBH9); assay: MNK2 enzymatic assay; type: biochemical
[1] = test system: eIF4e phosphorylation in Hela cell line; assay: eIF4e phosphorylation inhibition in Hela cell line; type: cell-based; conditions: Homo sapiens, cellular

MNK2, sequence (Q9HBH9 whole entry): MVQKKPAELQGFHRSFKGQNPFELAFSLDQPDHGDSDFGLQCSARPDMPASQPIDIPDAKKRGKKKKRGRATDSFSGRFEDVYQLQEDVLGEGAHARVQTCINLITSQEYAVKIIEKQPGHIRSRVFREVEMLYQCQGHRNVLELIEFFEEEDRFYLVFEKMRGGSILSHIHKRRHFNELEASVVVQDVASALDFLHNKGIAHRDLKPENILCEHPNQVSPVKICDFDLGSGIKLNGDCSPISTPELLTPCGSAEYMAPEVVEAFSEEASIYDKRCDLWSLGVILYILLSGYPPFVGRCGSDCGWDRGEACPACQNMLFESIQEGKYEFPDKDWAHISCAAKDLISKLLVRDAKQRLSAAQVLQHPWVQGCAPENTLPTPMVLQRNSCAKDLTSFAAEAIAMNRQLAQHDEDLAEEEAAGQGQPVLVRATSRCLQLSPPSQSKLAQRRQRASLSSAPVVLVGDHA
MNK1, sequence (Q9BUB5 whole entry): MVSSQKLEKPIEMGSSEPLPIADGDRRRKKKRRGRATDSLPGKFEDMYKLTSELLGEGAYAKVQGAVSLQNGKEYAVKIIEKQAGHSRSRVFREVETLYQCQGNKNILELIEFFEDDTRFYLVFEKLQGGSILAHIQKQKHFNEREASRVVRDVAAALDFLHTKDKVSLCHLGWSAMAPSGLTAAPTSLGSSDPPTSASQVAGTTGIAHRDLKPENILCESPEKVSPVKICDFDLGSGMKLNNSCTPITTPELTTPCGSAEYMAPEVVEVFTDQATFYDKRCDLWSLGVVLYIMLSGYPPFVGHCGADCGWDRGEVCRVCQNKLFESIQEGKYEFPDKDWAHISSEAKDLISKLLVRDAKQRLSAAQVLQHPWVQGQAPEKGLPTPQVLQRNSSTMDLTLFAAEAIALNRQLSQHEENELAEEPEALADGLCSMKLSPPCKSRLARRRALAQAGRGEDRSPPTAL

| SMILES | IC50 (MNK1) [µM] | IC50 (MNK2) [µM] | IC50 [1] [µM] |
| --- | --- | --- | --- |
| Cc1ccccc1C#Cc1cnc2ccc(-c3ccc(C(=O)N4CCN(C)CC4)cc3)nn12 [Example 001, (4-methylpiperazin-1-yl)(4-(3-(o-tolylethynyl)imidazo[1,2-b]pyridazin-6-yl)phenyl)methanone] | < 0.5 | < 0.5 | < 5 |
| CN1CCN(C(=O)c2ccc(-c3ccc4ncc(C#Cc5ccccc5)n4n3)cc2)CC1 [Example 002, (4-methylpiperazin-1-yl) (4-(3-(phenylethynyl)imidazo[1,2-b]pyridazin-6-yl)phenyl)methanone] | < 0.5 | < 0.5 | < 5 |
| CN1CCN(C(=O)c2ccc(-c3ccc4ncc(C#Cc5ccncc5)n4n3)cc2)CC1 [Example 005, (4-methylpiperazin-1-yl) (4-(3-(pyridin-4-ylethynyl)imidazo[1,2-b]pyridazin-6-yl)phenyl)methanone] | < 0.5 | < 0.5 | < 5 |
| CC(=O)Nc1cccc(C#Cc2cnc3ccc(-c4ccc(C(=O)N5CCN(C)CC5)cc4)nn23)c1 [Example 008, N-(3-((6-(4-(4-methylpiperazine-1-carbonyl)phenyl)imidazo[1,2-b]pyridazin-3-yl)ethynyl)phenyl)acetamide] | < 0.5 | < 0.5 | < 5 |
| O=C(c1ccc(-c2ccc3ncc(C#Cc4cccnc4)n3n2)cc1)N1CCOCC1 [Example 010, morpholino(4-(3-(pyridin-3-ylethynyl)imidazo[1,2-b]pyridazin-6-yl)phenyl)methanone] | < 0.5 | < 0.5 | < 5 |
| CS(=O)(=O)Nc1cccc(C#Cc2cnc3ccc(-c4ccc(C(=O)N5CCOCC5)cc4)nn23)c1 [Example 011, N-(3-((6-(4-(morpholine-4-carbonyl)phenyl)imidazo[1,2-b]pyridazin-3-yl)ethynyl)phenyl)methane sulfonamide] | < 0.5 | < 0.5 | < 5 |
| CC(=O)Nc1cccc(C#Cc2cnc3ccc(-c4ccc(C(=O)N5CCOCC5)cc4)nn23)c1 [Example 013, N-(3-((6-(4-(morpholine-4-carbonyl)phenyl)imidazo[1,2-b]pyridazin-3-yl)ethynyl)phenyl)acetamide] | < 0.5 | < 0.5 | < 5 |
| O=C(c1ccc(-c2ccc3ncc(C#Cc4ccnc5[nH]ncc45)n3n2)cc1)N1CCOCC1 [Example 016, (4-(3-((1H-pyrazolo[3,4-b]pyridin-4-yl)ethynyl)imidazo[1,2-b]pyridazin-6-yl)phenyl) (morpholino)methanone] | < 0.5 | < 0.5 | < 5 |
| Nc1cc(C#Cc2cnc3ccc(-c4ccc(C(=O)N5CCOCC5)cc4)nn23)c2cc[nH]c2n1 [Example 017, (4-(3-((6-amino-1H-pyrrolo[2,3-b]pyridin-4-yl)ethynyl)imidazo[1,2-b]pyridazin-6-yl)phenyl)(morpholino)methanone] | < 0.5 | < 0.5 | < 5 |
| COc1cc(C#Cc2cnc3ccc(-c4ccc(C(=O)N5CCOCC5)cc4)nn23)ccn1 [Example 019, (4-(3-((2-methoxypyridin-4-yl)ethynyl)imidazo[1,2-b]pyridazin-6-yl)phenyl) (morpholino)methanone] | < 0.5 | < 0.5 | < 5 |
| O=C(c1ccc(-c2ccc3ncc(C#Cc4cnc5cc[nH]c5c4)n3n2)cc1)N1CCOCC1 [Example 020, (4-(3-((1H-pyrrolo[3,2-b]pyridin-6-yl)ethynyl)imidazo[1,2-b]pyridazin-6-yl)phenyl) (morpholino)methanone] | < 0.5 | < 0.5 | < 5 |
| Cc1ccncc1C#Cc1cnc2ccc(-c3ccc(C(=O)N4CCOCC4)cc3)nn12 [Example 022] | < 0.5 | < 0.5 | < 5 |
| O=C(c1ccc(-c2ccc3ncc(C#Cc4cnc5[nH]ccc5c4)n3n2)cc1)N1CCOCC1 [Example 023, (4-(3-((1H-pyrrolo[2,3-b]pyridin-5-yl)ethynyl)imidazo[1,2-b]pyridazin-6-yl)phenyl) (morpholino)methanone] | < 0.5 | < 0.5 | < 5 |
| O=C(c1ccc(-c2ccc3ncc(C#Cc4c[nH]c5ncccc45)n3n2)cc1)N1CCOCC1 [Example 024, (4-(3-((1H-pyrrolo[2,3-b]pyridin-3-yl)ethynyl)imidazo[1,2-b]pyridazin-6-yl)phenyl) (morpholino)methanone] | < 0.5 | < 0.5 | < 5 |
| O=C(c1ccc(-c2ccc3ncc(C#Cc4ccc5[nH]cnc5c4)n3n2)cc1)N1CCOCC1 [Example 027, (4-(3-((1H-benzo[d]imidazol-5-yl)ethynyl)imidazo[1,2-b]pyridazin-6-yl)phenyl)(morpholino)methanone] | < 0.5 | < 0.5 | < 5 |
| O=C(c1ccc(-c2ccc3ncc(C#Cc4cn[nH]c4)n3n2)cc1)N1CCOCC1 [Example 028, (4-(3-((1H-pyrazol-4-yl)ethynyl)imidazo[1,2-b]pyridazin-6-yl)phenyl)(morpholino)methanone] | < 0.5 | < 0.5 | < 5 |
| O=C(c1ccc(-c2ccc3ncc(C#Cc4c(C(F)(F)F)cnc5[nH]ccc45)n3n2)cc1)N1CCOCC1 [Example 031, morpholino(4-(3-((5-(trifluoromethyl)-1H-pyrrolo[2,3-b]pyridin-4-yl)ethynyl)imidazo[1,2-b]pyridazin-6-yl)phenyl)methanone] | < 0.5 | < 0.5 | < 5 |
| O=C(c1ccc(-c2ccc3ncc(C#Cc4ccncc4)n3n2)cc1)N1CCOCC1 [Example 032] | < 0.5 | < 0.5 | < 5 |
| O=C(c1ccc(-c2ccc3ncc(C#Cc4ccnc5[nH]ccc45)n3n2)cc1)N1CCOCC1 [Example 033, (4-(3-((1H-pyrrolo[2,3-b]pyridin-4-yl)ethynyl)imidazo[1,2-b]pyridazin-6-yl)phenyl) (morpholino)methanone] | < 0.5 | < 0.5 | < 5 |
| Nc1cc(C#Cc2cnc3ccc(-c4ccc(C(=O)N5CCOCC5)cc4)nn23)ccn1 [Example 034, (4-(3-((2-aminopyridin-4-yl)ethynyl)imidazo[1,2-b]pyridazin-6-yl)phenyl) (morpholino)methanone] | < 0.5 | < 0.5 | < 5 |
| Cn1ccc2c(C#Cc3cnc4ccc(-c5ccc(C(=O)N6CCOCC6)cc5)nn34)ccnc21 [Example 035, (4-(3-((1-methyl-1H-pyrrolo[2,3-b]pyridin-4-yl)ethynyl)imidazo[1,2-b]pyridazin-6-yl)phenyl)(morpholino) methanone] | < 0.5 | < 0.5 | < 5 |
| CC(=O)Nc1cc(C#Cc2cnc3ccc(-c4ccc(C(=O)N5CCOCC5)cc4)nn23)ccn1 [Example 037, N-(4-((6-(4-(morpholine-4-carbonyl)phenyl)imidazo[1,2-b]pyridazin-3-yl)ethynyl)pyridin-2-yl)acetamide] | < 0.5 | < 0.5 | < 5 |
| O=C(c1ccc(-c2ccc3ncc(C#Cc4ccc(O)nc4)n3n2)cc1)N1CCOCC1 [Example 040, (4-(3-((6-hydroxypyridin-3-yl)ethynyl)imidazo[1,2-b]pyridazin-6-yl)phenyl) (morpholino)methanone] | < 0.5 | < 0.5 | < 5 |
